In publication PMC2664101 (Journal of medicinal chemistry, 2009):
Where two headings read alike, the source gives them in different places.

What was measured:
[1] = test system: hypoxia-ischemia induced cerebral palsy; conditions: cited from earlier work; for fetal brain NOS activity in vivo / cardiovascular effects / distribution to fetal brain / eNOS regulated blood pressure / toxicity: rabbit; for hypoxia-ischemia induced deaths / number of newborn kits exhibiting symptoms of cerebral palsy: rabbit model for cerebral palsy
rat nNOS = rat nNOS (Rattus norvegicus, UniProt P29476); conditions: comparing 27 with 16
[2] = following maternal administration

| drop in nNOS inhibitory potency (rat nNOS) | SMILES | fetal brain NOS activity in vivo [1, 2] | hypoxia-ischemia induced deaths [1] | number of newborn kits exhibiting symptoms of cerebral palsy [1] | cardiovascular effects ([1]; in vivo) | distribution to fetal brain ([1]; in vivo) | eNOS regulated blood pressure ([1]; in vivo) | toxicity ([1]; in vivo) | toxicity [1, 2] |
| --- | --- | --- | --- | --- | --- | --- | --- | --- | --- |
|  | Cc1cc(N)nc(C[C@H]2CNC[C@H]2NCCNCCc2cccc(F)c2)c1 [compound 26] | inhibit fetal brain NOS activity in vivo | prevent hypoxia-ischemia induced deaths | reduce the number of newborn kits exhibiting symptoms of cerebral palsy | without cardiovascular effects | distribute to fetal brain | without affecting the eNOS regulated blood pressure | non-toxic |  |
|  | Cc1cc(N)nc(C[C@H]2CNC[C@H]2NCCNCc2ccc(Cl)cc2)c1.Cl [compound 16] | inhibit fetal brain NOS activity in vivo | prevent hypoxia-ischemia induced deaths | reduce the number of newborn kits exhibiting symptoms of cerebral palsy | without cardiovascular effects | distribute to fetal brain | without affecting the eNOS regulated blood pressure |  | non-toxic |
| more than 200 fold | Cc1cc(C[C@H]2CNC[C@H]2NCCNCc2ccc(Cl)cc2)cc(N)n1.Cl (racemic) [compound 27, N^1-{(±)-4′-[(2”-amino-6”-methylpyridin-4”-yl)methyl]pyrrolidin-3′-yl}-N^2-(4′-chlorobenzyl)ethane-1,2-diamine tetrahydrochloride] |  |  |  |  |  |  |  |  |
